Data set [1] relates to SUDHL10. The data set can be described thus: Induction of cytotoxicity (Assay 6), SUDHL10. Conditions: read-out: Cytotox SUDHL10 [M] (median) IC50, CellTiter-Glo, 5 hours, SUDHL10. A general note: ATP-based viability assays read luminescence as a measure of living cells.
The subject of data set [2] is SUDHL10. The data set can be described thus: Induction of caspase-3/7 activity (Assay 4), SUDHL10. As to conditions: caspase-3/7 induction, 3 hours, median. It counts as cell-based. The method, boiled down:
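DLBCL cells were exposed to compounds for 3 hours at 37 °C, then caspase-3/7 activation was read with Caspase-Glo 3/7 reagent. After subtracting medium-only background, EC50s were derived with fixed C0=1 and the reference compound's maximal induction as plateau.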

A further data set addresses BCL-XL (Homo sapiens (Human), UniProt Q07817). As to the kind of experiment: Protein-protein interaction assay BCL-XL/Bad BH3 peptide (BCL-XL assay, TR-FRET). Conditions: His-BCL-XL / Bad BH3 peptide, median. The class given is binding. The method, boiled down:
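His-tagged human BCL-XL (aa 1-212, 1 nM final) was preincubated 10 min at 22 °C with compound (11 concentrations, 0.1 nM–20 μM), then biotinylated Bad BH3 peptide (1 nM) and TR-FRET reagents were added. Incubation: 1 h at 22 °C, then overnight at 4 °C, pH 7 Tris buffer. IC50 from 4-parameter fit of 665/620 ratio.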
For orientation: In TR-FRET formats the signal depends on donor and acceptor labels being close together.

The test system of a further data set is AMO-1. As to the kind of experiment: Antiproliferation assay (Assay 7), AMO-1. It counts as cell-based. As to conditions: CellTiter-Glo, 72 hours, several values per example. The method, boiled down: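 Proliferation was read by CellTiter-Glo luminescence after 72 hours of compound treatment at 37° C. The read was referenced to a parallel plate measured at time zero.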

Setting [3] is: read-out: Antiproli AMO-1 [M] IC50.

Where “and” joins values, the source holds several entries; their conditions need not be identical. Identical values can stand only once. Counter-ions that a name gives are not always drawn. Like-named read-outs stand apart in the source and are kept apart here.

Sequence of BCL-XL (Q07817 other isoform, or with tags, fused parts or gaps): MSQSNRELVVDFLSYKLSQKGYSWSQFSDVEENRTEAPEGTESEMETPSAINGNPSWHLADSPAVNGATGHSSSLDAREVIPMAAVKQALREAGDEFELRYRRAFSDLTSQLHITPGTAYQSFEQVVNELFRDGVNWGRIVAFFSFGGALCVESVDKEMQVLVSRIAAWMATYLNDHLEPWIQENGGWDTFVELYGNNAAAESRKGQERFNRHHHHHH

By IC50 is commonly meant the concentration that gives 50% inhibition. For orientation: EC50 means the concentration needed to bring the measured effect to its halfway point. Low readings indicate higher potency in that assay, high ones lower potency in that assay. On to `CCc1c2c(nn1C)C(CCC1CCOCC1)N(C)S(=O)(=O)CCCn1c(C(=O)O)c(CCCOc3cccc4cc(F)ccc34)c3ccc(Cl)c-2c31` (racemic) [Example 60, (rac)-4-chloro-3-ethyl-7-{3-[(6-fluoro-1-naphthyl)oxy]propyl}-2,14-dimethyl-15-[2-(tetrahydro-2H-pyran-4-yl)ethyl]-11,12,14,15-tetrahydro-2H,10H-pyrazolo[3′,4′:4,5][1,2,8]thiadiazacycloundecino[6,7,8-hi]indole-8-carboxylic acid 13,13-dioxide (Racemate 1)], for which the IC50 in the data set with SUDHL10 [1] was 3.9e-08 M; against BCL-XL, above 20 µM; with AMO-1 (setting [3]), 4.4e-08 M. For the same compound, the response with SUDHL10 [2] was half-maximal at 0.032 µM (EC50).

For `Cc1c2c(nn1C)C(CCN1CCOCC1)N(C)S(=O)(=O)CCCn1c(C(=O)O)c(CCCOc3cccc4cc(F)ccc34)c3ccc(Cl)c-2c31` (racemic) [Example 65, (rac)-4-chloro-7-{3-[(6-fluoronaphthalen-1-yl)oxy]propyl}-2,3,14-trimethyl-15-(rac)-[2-(morpholin-4-yl)ethyl]-13,13-dioxo-10,11,12,13,14,15-hexahydro-2H-13lambda^6-pyrazolo[3′,4′:4,5][1,2,8]thiadiazacycloundecino[6,7,8-hi]indole-8-carboxylic acid (Mixture of Stereoisomers)], the 50% inhibitory concentration (IC50) in the data set with SUDHL10 [1] is 1e-07 M; at BCL-XL, above 20 µM; with AMO-1 (setting [3]) it was 7.1e-08 M. The EC50 with SUDHL10 [2] amounted to 0.06 µM.

On to `CCc1c2c(nn1C)CN(C)S(=O)(=O)CCCn1c(C(=O)O)c(CCCOc3cccc4cc(F)ccc34)c3ccc(F)c-2c31` (single isomer, unassigned; enantiomer 1) [Example 8, (+)-3-Ethyl-4-fluoro-7-{3-[(6-fluoronaphthalen-1-yl)oxy]propyl}-2,14-dimethyl-13,13-dioxo-10,11,12,13,14,15-hexahydro-2H-13λ^6-pyrazolo[3′,4′:4,5][1,2,8]thiadiazacycloundecino-[6,7,8-hi]indole-8-carboxylic acid (Enantiomer 1)], for which the half-maximal inhibitory concentration (IC50) in the data set with SUDHL10 [1] was 1.1e-06 M; at BCL-XL, above 20 µM; in the data set with AMO-1 (listed as 08, read-out: Antiproli AMO-1 [M] IC50) it was 1.5e-06 M. Besides, in the data set on SUDHL10 [2], it took 1 µM to reach a half-maximal effect (EC50).

Turning to `CCc1c2c(nn1C)CN(C)S(=O)(=O)CCCn1c(C(=O)O)c(CCCOc3cccc4cc(F)ccc34)c3ccc(Cl)c-2c31` (single isomer, unassigned; enantiomer 1) [Example 36, (+)-4-chloro-3-ethyl-7-{3-[(6-fluoronaphthalen-1-yl)oxy]propyl}-2,14-dimethyl-13,13-dioxo-10,11,12,13,14,15-hexahydro-2H-13lambda^6-pyrazolo[3′,4′:4,5][1,2,8]thiadiazacycloundecino-[6,7,8-hi]indole-8-carboxylic acid (Enantiomer 1)], the IC50 is 2.4e-07 M with SUDHL10 [1]; above 20 µM on BCL-XL; 4.5e-07 M and 5.3e-07 M with AMO-1 (setting [3]). In the data set with SUDHL10 [2], the response was half-maximal at 0.2 µM (EC50).

For `Cc1c2c(nn1C)CN(C)S(=O)(=O)CCCn1c(C(=O)O)c(CCCOc3cccc4cc(F)ccc34)c3ccc(F)c-2c31` (single isomer, unassigned; enantiomer 1) [Example 38, (−)-4-fluoro-7-{3-[(6-fluoronaphthalen-1-yl)oxy]propyl}-2,3,14-trimethyl-13,13-dioxo-10,11,12,13,14,15-hexahydro-2H-13lambda^6-pyrazolo[3′,4′:4,5][1,2,8]thiadiazacycloundecino-[6,7,8-hi]indole-8-carboxylic acid (Enantiomer 1)], the concentration for half-maximal inhibition (IC50) in the data set on SUDHL10 [1] was 2.1e-05 M; on BCL-XL it was above 20 µM; with AMO-1 (setting [3]) it was 2.9e-05 M. In the data set with SUDHL10 [2], this compound displayed an EC50 of 22 µM.

In the case of `Cc1c2c(nn1C)CN(C1CC1)S(=O)(=O)CCCn1c(C(=O)O)c(CCCOc3cccc4cc(F)ccc34)c3ccc(Cl)c-2c31` (single isomer, unassigned; enantiomer 1) [Example 42, (−)-4-chloro-14-cyclopropyl-7-{3-[(6-fluoro-1-naphthyl)oxy]propyl}-2,3-dimethyl-11,12,14,15-tetrahydro-2H,10H-pyrazolo[3′,4′:4,5][1,2,8]thiadiazacycloundecino[6,7,8-hi]indole-8-carboxylic acid 13,13-dioxide N-diethylamine salt (Enantiomer 1)], the concentration for half-maximal inhibition (IC50) with SUDHL10 [1] was 3.5e-07 M; at BCL-XL, 18 µM; in the data set on AMO-1 (setting [3]), 2.6e-07 M and 4.7e-07 M. The compound also came in with a 50% effective concentration (EC50) in the data set on SUDHL10 [2] of 0.29 µM.

Consider `Cc1c2c(nn1C)C(CCN1CCOCC1)N(C)S(=O)(=O)CCCn1c(C(=O)O)c(CCCOc3cccc4ccccc34)c3cccc-2c31` (single isomer, unassigned; enantiomer 1) [Example 45, 2,3,14-trimethyl-15-[2-(morpholin-4-yl)ethyl]-7-{3-[(naphthalen-1-yl)oxy]propyl}-13,13-dioxo-10,11,12,13,14,15-hexahydro-2H-13lambda^6-pyrazolo[3′,4′:4,5][1,2,8]thiadiazacycloundecino[6,7,8-hi]indole-8-carboxylic acid N-ethylethanamine Salt (Enantiomer 1)], for which the IC50 in the data set with SUDHL10 [1] turned out to be 1.7e-05 M; against BCL-XL it was 18 µM; in the data set on AMO-1 (setting [3]), 1.5e-05 M. In the data set with SUDHL10 [2], this compound displayed a concentration for a half-maximal effect (EC50) of 23 µM.

Regarding `CCc1c2c(nn1C)C(CCC1CCOCC1)N(C)S(=O)(=O)CCCn1c(C(=O)O)c(CCCOc3cccc4cc(F)ccc34)c3ccc(Cl)c-2c31` (single isomer, unassigned; enantiomer 1) [Example 61, (+)-4-chloro-3-ethyl-7-{3-[(6-fluoronaphthalen-1-yl)oxy]propyl}-2,14-dimethyl-15-[2-(oxan-4-yl)ethyl]-13,13-dioxo-10,11,12,13,14,15-hexahydro-2H-13lambda^6-pyrazolo[3′,4′:4,5][1,2,8]thiadiazacycloundecino[6,7,8-hi]indole-8-carboxylic acid (Enantiomer 1)], the IC50 in the data set on SUDHL10 [1] was 4.9e-08 M; against BCL-XL it was above 20 µM; in the data set on AMO-1 (setting [3]), 2.5e-08 M and 2.8e-08 M. Also, a half-maximal response in the data set with SUDHL10 [2] (EC50) required 0.024 µM.

As for `Cc1c2c(nn1C)C(CCN1CCOCC1)N(C)S(=O)(=O)CCCn1c(C(=O)O)c(CCCOc3cccc4cc(F)ccc34)c3ccc(Cl)c-2c31` (single isomer, unassigned; enantiomer 1) [Example 66, 4-chloro-7-{3-[(6-fluoronaphthalen-1-yl)oxy]propyl}-2,3,14-trimethyl-15-[2-(morpholin-4-yl)ethyl]-13,13-dioxo-10,11,12,13,14,15-hexahydro-2H-13lambda^6-pyrazolo[3′,4′:4,5][1,2,8]thiadiazacycloundecino[6,7,8-hi]indole-8-carboxylic acid (Enantiomer 1)], the IC50 in the data set on SUDHL10 [1] is 8.5e-06 M; against BCL-XL it was above 20 µM; in the data set with AMO-1 (setting [3]), 3.7e-06 M. This compound also registered a concentration for a half-maximal effect (EC50) with SUDHL10 [2] of 6 µM.

For `CCc1c2c(nn1C)CN(C)S(=O)(=O)CCCn1c(C(=O)O)c(CCCOc3cccc4cc(F)ccc34)c3ccc(F)c-2c31` (single isomer, unassigned; enantiomer 2) [Example 9, (−)-3-Ethyl-4-fluoro-7-{3-[(6-fluoronaphthalen-1-yl)oxy]propyl}-2,14-dimethyl-13,13-dioxo-10,11,12,13,14,15-hexahydro-2H-13λ^6-pyrazolo[3′,4′:4,5][1,2,8]thiadiazacycloundecino-[6,7,8-hi]indole-8-carboxylic acid (Enantiomer 2)], the IC50 in the data set on SUDHL10 [1] was above 3.3e-05 M; at BCL-XL it was above 20 µM; with AMO-1 (listed as 09, read-out: Antiproli AMO-1 [M] IC50), above 3.3e-05 M. In the data set on SUDHL10 [2], this compound came in with an EC50 above 33 µM.
